# Columns and labels:
# [1] = biological target: DGKα (Homo sapiens, UniProt P23743); assay: DGK assay on OST-DGKα enriched MDCK homogenates; format: biochemical; set-up: expressed in transfected cells; host or cells: MDCK cells (vector-infected, doxycycline-induced), crude homogenate; conditions: for remaining activity at 100 µM: percentage of residual DGKα activity compared to DMSO control, OST-DGKα overexpressing cell lysates, saturating DAG and ATP, read-out: Residue activity at 100 µM; for IC50: residual OST-DGKα activity at 0.1, 1.0, 10.0 and 100.0 µM
# Description: Madin-Darby canine kidney (MDCK) cells stably expressing One Strep Tag DGKα (OST-DGKα) were prepared by infecting MDCK cells with a vector expressing an inducible OST tagged DGKα constructs. MDCK cells infected with empty vector were used as controls. MDCK cells were cultured in MEM (minimal essential medium) with 5% FBS (foetal bovine serum) and 1% antibiotic–antimycotic solution. Routinely, cells were splitted every 3–4 days with trypsin–EDTA 0.25% in standard 100 mm dishes.
# Large cultures of MDCK cells for enzyme preparation were done by plating 5 × 10^6 cells in 245 mm^2 dishes. Once they reached nearly 70% confluence, cells were treated with doxycycline (1 µg/mL, two days). […] Cells were collected with a rubber scraper, homogenised by passing them through a 29 G-needle syringe 20 times and stored in aliquots at –80 °C. Presence of OST-DGKα was confirmed by western blotting and enzyme assay, transduced DGKα has an activity >100 folds the endogenous DGK.
# Essentionally, the same procedure was followed as reported previously in Velnati et al.[9] In brief, DGK activity was assayed by measuring initial velocities (5 min at 27 °C) in presence of saturating substrate concentrations. Reaction conditions: 0.9 µg/µL 1,2-dioleoyl-sn-glycerol, 5 mM ATP, 0.01 µCi/µL [γ^32P]-ATP, 1 mM sodium orthovanadate, 10 mM MgCl2, 1.2 mM EGTA in 7.5 mM Hepes pH 8[12]. Reaction mixture is assembled mixing enzyme (24.5 µL of homogenate), 100× inhibitor or DMSO (0.5 µL), 5× ATP solution (10 µL of 25 mM ATP, 0.05 µCi/µL [γ^32P]-ATP (Perkin-Elmer, Milan, Italy), 5 mM sodium orthovanadate, 50 mM MgCl2), and 3.3× DAG solution (15 µL of 3 µg/µL 1,2-dioleoyl-sn-glycerol resuspended by sonication in 4 mM EGTA in 25 mM Hepes pH 8). The reaction was stopped after 5 min by adding 200 µL of freshly prepared 1 M HCl and lipid was extracted by adding 200 µL of CH3OH:CHCl3 1:1 solution and vortexing for 1 min. The two phases were separated by centrifugation (12,000 RCF for 2 min). Twenty-five microlitres of the lower organic phase was spotted in small drops on silica TLC plates. TLC was run 10 cm and dried before radioactive signals were detected by GS-250 molecular imager and was quantified by quantity one (Bio-Rad, Hercules, CA) software assuring the absence of saturated spots.
# Percentage residual activity was calculated as follows: (OST-DGKα homogenate with inhibitor – vector homogenate)/(OST-DGKα homogenate with DMSO – vector homogenate)×100.
# Data for the screen on OST-DGKα homogenates are the mean of duplicates. The compounds showing inhibitory activity in this assay were tested >4 times and the mean ± SEM is reported.
# To calculate IC50 values of active inhibitors, the inhibitor activity was measured at least three times at 0.1, 1.0, 10.0, and 100.0 µM concentration. Data were analysed using [inhibitor] vs. normalised response parameters with least square [ordinary] curve fitting method in GraphPad PRISM 8.0 software (GraphPad Software, La Jolla, CA) mentioning 95% confidence interval and IC50 values always greater than 0.0. […] In all the experiments, the data were normalised with the controls.
# Each inhibitor was tested in duplicate at least once, and DGKα activity was expressed as percentage of residual DGKα activity compared to DMSO control in the same assay. Assay uses OST-DGKα overexpressing cell lysates in presence of saturating exogenous DAG and ATP. We considered R59022 (commercially available) and the lead compound Amb63975230 as our reference molecules.
# To measure the inhibitor potency, we determined the IC50 values for the compounds that resulted active when tested at 100 µM by measuring the residual OST-DGKα activity over a dose range of inhibitor concentrations (0.1 µM, 1.0 µM, 10.0 µM, and 100.0 µM).
# [2] = system: SAP-deficient T cells; assay: RICD assay in SAP silenced T cells; format: cell-based, human; conditions: 10 µM, 30 min pre-treatment; OKT3 10 ng/mL, 24 h
# Description: PBL were isolated from healthy anonymous human donors by Ficoll-Paque PLUS (GE Healthcare, Chicago, IL) density gradient centrifugation, washed, and resuspended at 2 × 10^6 cell/mL in RPMI-GlutaMAX containing 10% heat inactivated FCS, 2 mM glutamine, and 100 U/mL of penicillin and streptomycin. T cells were activated with 1 µg/mL anti-CD3 (UCHT1) and anti-CD28 (clone CD28.2) antibodies. After three days, activated T cells were washed and cultured in medium additionated of 100 IU/mL rhIL-2 (Peprotech, Rocky Hill, NJ) at 1.2 × 10^6 cells/mL for ≥7 days by changing media for every 2–3 days.
# Activated human PBLs were transfected with 200 pmol of siRNA oligonucleotides specific for the target protein (Stealth Select siRNA; Life Technologies, Carlsbad, CA) or a non-specific control oligo (Life Technologies, Carlsbad, CA). Transient transfections were performed using Amaxa nucleofector kits for human T cells (Lonza, Basel, Switzerland) and the Amaxa Nucleofector II or 4D systems (programmes T-20 or EI-115). Cells were cultured in IL-2 (100 IU/mL) for four days to allow target gene knockdown. Knockdown efficiency was periodically evaluated by Western blotting.
# To test restimulation induced cell death, activated T cells (10^5 cells/well) were plated in triplicate in 96-well round-bottom plate and treated with anti-CD3 (clone OKT3) (10 ng/mL) in RPMI-GlutaMAX supplemented with 100 IU/mL rhIL-2 for 24 h. In these assays, inhibitors (10 µM) were added 30 min before the restimulation with OKT3. 24 h after treatment, cells were stained with 20 ng/mL propidium iodide and collected for a constant time of 30 s per sample on Attune Nxt Flow Cytometer (Thermo Fisher Scientific, Waltham, MA). Cell death is expressed as % cell loss and calculated as: % cell loss=(1−(number of viable cells in sample/number of viable cells in control)×100)
# Results were expressed as mean ± standard error of the mean (SEM). We always compared controls and SAP silenced lymphocytes from the same donors as there is a large individual variability in RICD sensitivity.
# To evaluate inhibitor efficacy in physiological context, we modelled XLP-1 by silencing SAP in primary peripheral blood T lymphocytes (PBLs) and restimulating them with anti-CD3 antibody (OKT3 10 ng/mL, 24 h). We pre-treated the cells with the indicated inhibitors for 30 min at a concentration of 10 µM[8].
# Figure 9. DGKα inhibitors partially restores apoptosis in SAP deficient lymphocytes. […] After 4 days, the cells were restimulated with CD3 agonist OKT3 (10 ng/mL) in presence of respective inhibitor. Vehicle (DMSO) was used as control. Twenty-four hours later, the % of cell loss was evaluated by PI staining. Data are the mean ± SEM of nine independent experiments performed in triplicate.
# DGKα, sequence (P23743 whole entry): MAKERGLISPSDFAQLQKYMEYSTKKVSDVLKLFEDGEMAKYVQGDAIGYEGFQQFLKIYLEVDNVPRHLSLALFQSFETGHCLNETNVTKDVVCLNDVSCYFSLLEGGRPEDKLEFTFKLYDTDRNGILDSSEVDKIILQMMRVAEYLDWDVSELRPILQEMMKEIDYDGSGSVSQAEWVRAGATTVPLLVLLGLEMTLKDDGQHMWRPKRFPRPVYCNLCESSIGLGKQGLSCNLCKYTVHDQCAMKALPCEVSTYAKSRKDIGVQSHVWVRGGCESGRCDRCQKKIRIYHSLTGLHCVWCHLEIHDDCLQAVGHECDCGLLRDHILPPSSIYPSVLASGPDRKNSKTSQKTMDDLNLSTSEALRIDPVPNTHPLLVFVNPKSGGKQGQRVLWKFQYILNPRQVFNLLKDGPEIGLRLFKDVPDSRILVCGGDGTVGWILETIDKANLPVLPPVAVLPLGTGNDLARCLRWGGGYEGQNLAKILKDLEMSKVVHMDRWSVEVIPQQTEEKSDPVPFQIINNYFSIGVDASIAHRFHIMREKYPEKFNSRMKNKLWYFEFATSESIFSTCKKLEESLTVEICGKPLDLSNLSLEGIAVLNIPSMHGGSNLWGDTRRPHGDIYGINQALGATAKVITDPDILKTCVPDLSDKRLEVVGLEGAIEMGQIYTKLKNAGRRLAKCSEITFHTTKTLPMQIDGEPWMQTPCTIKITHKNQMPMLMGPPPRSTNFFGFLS
SMILES,remaining activity at 100 µM [1] [%],melting point [°C],further results
Cc1[nH]c2ccccc2c1C(=O)C(C)N1CCN(C(=O)c2ccccc2)CC1 (centres unmarked) [Amb37496],114,–,–
O=C(CN1CCN(C(=O)c2ccco2)CC1)c1c(-c2ccccc2)[nH]c2ccccc12 [Amb98433],81,–,–
CC(C(=O)c1c[nH]c2ccccc12)N1CCN(C(=O)c2ccco2)CC1 (centres unmarked) [Amb626577],127,–,–
COc1ccc2[nH]cc(C(=O)CN3CCN(C(=O)c4ccco4)CC3)c2c1 [Amb629700],101,–,–
COc1ccc2[nH]c(C)c(C(=O)CN3CCN(C(=O)c4ccco4)CC3)c2c1 [Amb687392],115,–,–
Cc1ccc2c(C(=O)C(C)N3CCN(C(=O)c4ccco4)CC3)c(C)[nH]c2c1 (centres unmarked) [Amb758897],67,–,–
Cc1[nH]c2ccccc2c1C(=O)C(c1ccccc1)N1CCN(C(=O)c2ccco2)CC1 (centres unmarked) [Amb1926062],88,–,–
Cc1[nH]c2c(C)ccc(C)c2c1C(=O)CN1CCN(C(=O)c2ccco2)CC1 [Amb22018852],160,–,–
O=c1c2ccccc2[nH]c(=S)n1CCC1CCC(=C(c2ccc(F)cc2)c2ccc(F)cc2)CC1 (centres unmarked) [Compound 1],–,–,inhibitory activity on the enzyme (DGKα) [1]: totally devoid of inhibitory activity
"Cc1ccc2c(C(=O)CN3CCN(C(=O)c4ccccc4)CC3)c(C)[nH]c2c1 [Compound 8, 2-(4-Benzoylpiperazin-1-yl)-1-(2,6-dimethyl-1H-indol-3-yl)ethan-1-one]",5,213.8 to 214.3,IC50 [1]: 3.2 µM
"Cc1ccc2c(C(=O)CN3CCN(C(=O)c4ccc(C#N)cc4)CC3)c(C)[nH]c2c1 [Compound 13, 4-(4-(2-(2,6-Dimethyl-1H-indol-3-yl)-2-oxoethyl)piperazine-1-carbonyl)benzonitrile]",14,243.9 to 244.8,IC50 [1]: 6.9 µM
"Cc1ccc2c(C(=O)CN3CCN(C(=O)c4cccnc4)CC3)c(C)[nH]c2c1 [Compound 15, 1-(2,6-Dimethyl-1H-indol-3-yl)-2-(4-nicotinoylpiperazin-1-yl)ethan-1-one]",89,216.2 to 216.8,–
"Cc1ccc2c(C(=O)CN3CCN(C(=O)c4ccccc4C)CC3)c(C)[nH]c2c1 [Compound 16, 1-(2,6-Dimethyl-1H-indol-3-yl)-2-(4-(2-methylbenzoyl)piperazin-1-yl)ethan-1-one]",27,200.5 to 201.6,IC50 [1]: 32.8 µM
"Cc1ccc2c(C(=O)CN3CCN(C(=O)C4CCCC4)CC3)c(C)[nH]c2c1 [Compound 21, 2-(4-(Cyclopentanecarbonyl)piperazin-1-yl)-1-(2,6-dimethyl-1H-indol-3-yl)ethan-1-one]",39,–,–
"CCCCCCC(=O)N1CCN(CC(=O)c2c(C)[nH]c3cc(C)ccc23)CC1 [Compound 22, 1-(4-(2-(2,6-Dimethyl-1H-indol-3-yl)-2-oxoethyl)piperazin-1-yl)heptan-1-one]",48,–,–

# The next lines start with results.
remaining activity at 100 µM [1] [%],melting point [°C],SMILES,further results
135,–,Cn1c(-c2ccccc2)c(C(=O)CN2CCN(C(=O)c3ccco3)CC2)c2ccccc21 [Amb18718],–
196,–,O=C(c1c[nH]c2ccccc12)C(c1ccccc1)N1CCN(C(=O)c2ccco2)CC1 (centres unmarked) [Amb94966],–
126,–,COc1ccc2c(C(=O)CN3CCN(C(=O)c4ccco4)CC3)c(C)n(C)c2c1 [Amb726054],–
130,–,Cc1c(C(=O)CN2CCN(C(=O)c3ccco3)CC2)c2ccccc2n1C [Amb731111],–
150,–,Cc1ccc2[nH]cc(C(=O)CN3CCN(C(=O)c4ccco4)CC3)c2c1 [Amb758592],–
135,–,O=C(CN1CCN(C(=O)c2ccco2)CC1)c1c[nH]c2ccccc12 [Compound 2],–
6,219.9 to 220.8,"COc1ccc(C(=O)N2CCN(CC(=O)c3c(C)[nH]c4cc(C)ccc34)CC2)cc1 [Compound 12, 1-(2,6-Dimethyl-1H-indol-3-yl)-2-(4-(4-methoxybenzoyl)piperazin-1-yl)ethan-1-one]",IC50 [1]: 3.6 µM
6,–,"Cc1ccc2c(C(=O)CN3CCN(C(=O)c4cccs4)CC3)c(C)[nH]c2c1 [Compound 14, 1-(2,6-Dimethyl-1H-indol-3-yl)-2-(4-(thiophene-2-carbonyl)piperazin-1-yl)ethan-1-one]",effect on RICD in control siRNA-transfected cells [2]: slightly reducing; IC50 [1]: 3 µM
41,209.8 to 210.4,"COc1cccc(C(=O)N2CCN(CC(=O)c3c(C)[nH]c4cc(C)ccc34)CC2)c1 [Compound 17, 1-(2,6-Dimethyl-1H-indol-3-yl)-2-(4-(3-methoxybenzoyl)piperazin-1-yl)ethan-1-one]",–
47,233.8 to 235,"Cc1ccc2c(C(=O)CN3CCN(C(=O)c4ccc(F)c(F)c4)CC3)c(C)[nH]c2c1 [Compound 18, 2-(4-(3,4-Difluorobenzoyl)piperazin-1-yl)-1-(2,6-dimethyl-1H-indol-3-yl)ethan-1-one]",–
26,222.3 to 223.5,"Cc1ccc2c(C(=O)CN3CCN(C(=O)c4cccc(Cl)c4)CC3)c(C)[nH]c2c1 [Compound 19, 2-(4-(3-Chlorobenzoyl)piperazin-1-yl)-1-(2,6-dimethyl-1H-indol-3-yl)ethan-1-one]",IC50 [1]: 49.7 µM
